The source of these data is patent publication US20060189574A1, “Method of treating high plasma cholesterol levels” (priority 2000, published 2006).

Each structure is given as a SMILES string.

In test [1] the test system is animal models. The settings on record: cited from earlier work.
For test [2], the system named is plasma cholesterol. Kind of test: Effect of Orlistat/XENICAL and cholestyramine/[…] on plasma cholesterol in volunteers. The class given is in vivo, human. The settings on record: for plasma cholesterol, mean: mean of volunteers. The text has this: The effect of a combination of Orlistat/XENICAL® and a bile acid sequestrant cholestyramine/[…]® on plasma cholesterol was examined.
Three hyper-cholesterolemic volunteers, one female, 2 males, […] cholesterol level: They continued on a combination of […], […]

Test [3] concerns fat absorption. Conditions: humans; cited from earlier work.

For `CCCCCCCCCCC[C@@H](C[C@@H]1OC(=O)[C@H]1CCCCCC)OC(=O)[C@H](CC(C)C)NC=O` [Xenical, Orlistat], in test [1], the body weight entry was “reduce body weight”. Besides, the fat absorption result in test [1] is reported as “inhibit fat absorption”; in test [3] it was “potent inhibition of fat absorption”. In addition, in test [2] (all three individuals, end of 6 weeks treatment with Xenical b.i.d.), the plasma cholesterol course result was “reasonably stable”. The “plasma cholesterol, mean” value in test [2] (week 4, Xenical b.i.d.) came to 252 mg/100 ml; in test [2] (week 5, Xenical b.i.d.), 225 mg/100 ml; in test [2] (week 6, Xenical b.i.d.) it was 247 mg/100 ml; in test [2] (week 11, Xenical b.i.d. after cessation of Quantalan), 253 mg/100 ml; in test [2] (week 13, Xenical b.i.d. after cessation of Quantalan) it was 263 mg/100 ml. Further, the plasma cholesterol in test [2] (volunteer 1, week 4, Xenical b.i.d.) came out at 252 mg/100 ml; in test [2] (volunteer 1, week 5, Xenical b.i.d.), 239 mg/100 ml; in test [2] (volunteer 1, week 6, Xenical b.i.d.), 233 mg/100 ml; in test [2] (volunteer 1, week 11, Xenical b.i.d. after cessation of Quantalan) it was 247 mg/100 ml; in test [2] (volunteer 2, week 4, Xenical b.i.d.), 236 mg/100 ml; in test [2] (volunteer 2, week 5, Xenical b.i.d.), 212 mg/100 ml. For the same compound, the plasma cholesterol is recorded as 232 mg/100 ml in test [2] (volunteer 2, week 6, Xenical b.i.d.); 230 mg/100 ml in test [2] (volunteer 2, week 11, Xenical b.i.d. after cessation of Quantalan); 226 mg/100 ml in test [2] (volunteer 2, week 13, Xenical b.i.d. after cessation of Quantalan); 269 mg/100 ml in test [2] (volunteer 3, week 4, Xenical b.i.d.); 277 mg/100 ml in test [2] (volunteer 3, week 6, Xenical b.i.d.); 282 mg/100 ml in test [2] (volunteer 3, week 11, Xenical b.i.d. after cessation of Quantalan). For the same compound, the plasma cholesterol in test [2] (volunteer 3, week 13, Xenical b.i.d. after cessation of Quantalan) is listed as 300 mg/100 ml.
